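The compound was tested at five concentrations on cells cultured in 96-well plates, with a 48-hour exposure period. At the GI50, growth is halved.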 The source made the active and inactive calls. Cut-off read from the data, not from the text of the source: active = GI50 up to about 1.1 µM and inactive = higher.
Columns and labels:
Assay in all cases: NCI tumour cell line growth inhibition, 48 h
786-0 = test system: 786-0
A498 = test system: A498
A549 = test system: A549
BT-549 = test system: BT-549
CAKI-1 = test system: CAKI-1
CCRF-CEM = test system: CCRF-CEM
COLO 205 = test system: COLO 205
DU-145 = test system: DU-145
EKVX = test system: EKVX
HCC 2998 = test system: HCC 2998
HCT-116 = test system: HCT-116
HCT-15 = test system: HCT-15
HL-60 = test system: HL-60
HOP-62 = test system: HOP-62
HOP-92 = test system: HOP-92
HT-29 = test system: HT-29
Hs-578T = test system: Hs-578T
IGROV-1 = test system: IGROV-1
KM12 = test system: KM12
LOX IMVI = test system: LOX IMVI
M14 = test system: M14
MCF7 = test system: MCF7
MDA-MB-231 = test system: MDA-MB-231
MDA-MB-435 = test system: MDA-MB-435
MDA-N = test system: MDA-N
MOLT-4 = test system: MOLT-4
Malme-3M = test system: Malme-3M
NCI-H226 = test system: NCI-H226
NCI-H23 = test system: NCI-H23
NCI-H460 = test system: NCI-H460
NCI/ADR-RES = test system: NCI/ADR-RES
OVCAR-3 = test system: OVCAR-3
OVCAR-4 = test system: OVCAR-4
OVCAR-5 = test system: OVCAR-5
OVCAR-8 = test system: OVCAR-8
RPMI-8226 = test system: RPMI-8226
RXF 393 = test system: RXF 393
SF-268 = test system: SF-268
SF-295 = test system: SF-295
SF-539 = test system: SF-539
SK-MEL-28 = test system: SK-MEL-28
SK-MEL-2 = test system: SK-MEL-2
SK-MEL-5 = test system: SK-MEL-5
SK-OV-3 = test system: SK-OV-3
SN12C = test system: SN12C
SNB-19 = test system: SNB-19
SR = test system: SR
SW-620 = test system: SW-620
T47D = test system: T47D
U-251 = test system: U-251
UACC-257 = test system: UACC-257
UACC-62 = test system: UACC-62
UO-31 = test system: UO-31

For `Cc1c(N2C(=O)/C(=C/c3ccc(N(CCC#N)CCC#N)cc3)N=C2c2ccccc2)c(=O)n(-c2ccccc2)n1C`, the GI50 (786-0) was > 100 µM (inactive), the GI50 (A498) was > 100 µM (inactive) and the GI50 (A549) was > 100 µM (inactive). The GI50 (BT-549) was > 100 µM (inactive), the GI50 (CAKI-1) was > 100 µM (inactive) and the GI50 (CCRF-CEM) was 59.6 µM (inactive). The GI50 (COLO 205) was > 100 µM (inactive), the GI50 (DU-145) was > 100 µM (inactive) and the GI50 (EKVX) was > 100 µM (inactive). The GI50 (HCC 2998) was > 100 µM (inactive), the GI50 (HCT-116) was > 100 µM (inactive) and the GI50 (HCT-15) was 70 µM. The GI50 (HL-60) was 96.2 µM (inactive), the GI50 (HOP-62) was > 100 µM (inactive) and the GI50 (HOP-92) was > 100 µM (inactive). For the same molecule, the GI50 (HT-29) was > 100 µM (inactive), the GI50 (Hs-578T) was > 100 µM (inactive) and the GI50 (IGROV-1) was > 100 µM (inactive). For the same molecule, the GI50 (KM12) was > 100 µM (inactive), the GI50 (LOX IMVI) was > 100 µM (inactive) and the GI50 (M14) was > 100 µM (inactive). The GI50 (MCF7) was > 100 µM (inactive), the GI50 (MDA-MB-231) was > 100 µM (inactive) and the GI50 (MDA-MB-435) was > 100 µM (inactive). For the same molecule, the GI50 (MDA-N) was > 100 µM (inactive), the GI50 (MOLT-4) was 75.7 µM (inactive) and the GI50 (Malme-3M) was > 100 µM (inactive). The GI50 (NCI-H226) was > 100 µM (inactive), the GI50 (NCI-H23) was > 100 µM (inactive) and the GI50 (NCI-H460) was > 100 µM (inactive). The GI50 (NCI/ADR-RES) was > 100 µM (inactive), the GI50 (OVCAR-3) was > 100 µM (inactive) and the GI50 (OVCAR-4) was > 100 µM (inactive). For the same molecule, the GI50 (OVCAR-5) was > 100 µM (inactive), the GI50 (OVCAR-8) was > 100 µM (inactive) and the GI50 (RPMI-8226) was > 100 µM (inactive). The GI50 (RXF 393) was > 100 µM (inactive), the GI50 (SF-268) was > 100 µM (inactive) and the GI50 (SF-295) was > 100 µM (inactive). The GI50 (SF-539) was > 100 µM (inactive), the GI50 (SK-MEL-28) was > 100 µM (inactive) and the GI50 (SK-MEL-2) was > 100 µM (inactive). For the same molecule, the GI50 (SK-MEL-5) was > 100 µM (inactive), the GI50 (SK-OV-3) was > 100 µM (inactive) and the GI50 (SN12C) was > 100 µM (inactive). For the same molecule, the GI50 (SNB-19) was > 100 µM (inactive), the GI50 (SR) was > 100 µM (inactive) and the GI50 (SW-620) was > 100 µM (inactive). The GI50 (T47D) was > 100 µM (inactive), the GI50 (U-251) was > 100 µM (inactive) and the GI50 (UACC-257) was > 100 µM (inactive). For the same molecule, the GI50 (UACC-62) was > 100 µM (inactive) and the GI50 (UO-31) was > 100 µM (inactive).
